{"source": "patent US20020137929A1", "about": "“1 - (3-heterocyclylphenyl) isothiourea, -isourea, -guanidine and -amidine herbicidal agents” (Intellectual Property Department, BASF Aktiengesellschaft, priority 1998, published 2002)", "key": {"CASOB (Sicklepod)": {"system": "CASOB (Sicklepod)", "test": "Postemergence herbicidal evaluation", "assay_type": "in vivo, Cassia obtusifolia", "outline": "(§1)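 ~2-wk seedlings; postemergence spray, 40 psi; vehicle 1:1 acetone:water + 0.5% Tween 20; rate ≈0.0156–0.500 kg/ha; greenhouse hold; scored 4–5 wk after treatment, 0–9 scale vs control; repeat tests averaged.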"}, "[1]": {"system": "CHEAL (Lambsquarters, Common)", "test": "Postemergence herbicidal evaluation", "assay_type": "in vivo, Chenopodium album", "outline": "as §1"}, "ECHCG (Barnyardgrass)": {"system": "ECHCG (Barnyardgrass)", "test": "Postemergence herbicidal evaluation", "assay_type": "in vivo, Echinochloa crus-galli", "outline": "as §1"}, "ORYSAT (Rice, Tebonnet) [2]": {"system": "ORYSAT (Rice, Tebonnet)", "test": "Postemergence herbicidal evaluation", "assay_type": "in vivo, Oryza sativa, (L.) Tebonnet", "outline": "as §1"}, "GALAP (Galium)": {"system": "GALAP (Galium)", "test": "Preemergence herbicidal evaluation", "assay_type": "in vivo, Galium aparine", "conditions": "rated 4-5 weeks after treatment", "outline": "(§2)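 Seeds were planted in potting soil in cups, then sprayed preemergence with the test compound in aqueous acetone at about 0.0156 to 0.500 kg per hectare. Cups were kept under greenhouse conditions and visually rated 4–5 weeks after treatment on a 0–9 scale against an untreated control.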"}, "SETVI (Foxtail, Green)": {"system": "SETVI (Foxtail, Green)", "test": "Preemergence herbicidal evaluation", "assay_type": "in vivo, Setaria viridis", "conditions": "rated 4-5 weeks after treatment", "outline": "as §2"}, "[3]": {"system": "GLXMAW (Soybean, Williams)", "test": "Preemergence herbicidal evaluation", "assay_type": "in vivo, Glycine max, (L.) Merr. cv Williams", "conditions": "rated 4-5 weeks after treatment", "outline": "as §2"}, "ORYSAT (Rice, Tebonnet) [4]": {"system": "ORYSAT (Rice, Tebonnet)", "test": "Preemergence herbicidal evaluation", "assay_type": "in vivo, Oryza sativa, (L.) Tebonnet", "conditions": "rated 4-5 weeks after treatment", "outline": "as §2"}, "[5]": {"system": "TRZAWR (Wheat, Winter, cv Riband)", "test": "Preemergence herbicidal evaluation", "assay_type": "in vivo, Triticum aestivum", "conditions": "rated 4-5 weeks after treatment", "outline": "as §2"}, "ZEAMX (Corn, Field)": {"system": "ZEAMX (Corn, Field)", "test": "Preemergence herbicidal evaluation", "assay_type": "in vivo, Zea mays", "conditions": "rated 4-5 weeks after treatment", "outline": "as §2"}, "CYPIR (Rice Flatsedge)": {"system": "CYPIR (Rice Flatsedge)", "test": "Preemergence weed control under flooded paddy conditions", "assay_type": "in vivo, Cyperus iria", "conditions": "rated 3-4 weeks after treatment", "outline": "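Seeds or propagules sown in silt loam kept flooded 1.5-3 cm; compounds in 50/50 acetone/water pipetted into flood water at about 0.0313 to 0.500 kg/ha. Greenhouse; visual 0-9 rating versus untreated control 3-4 weeks after treatment.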"}, "MOOVA (Monochoria)": {"system": "MOOVA (Monochoria)", "test": "Preemergence weed control under flooded paddy conditions", "assay_type": "in vivo, Monochoria vaginalis", "conditions": "rated 3-4 weeks after treatment", "outline": "(§3)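 Ratings on a 0-9 visual scale cover stand, vigor, malformation, size, chlorosis and overall appearance relative to a control, taken three to four weeks post-treatment. Application was into flood water over freshly sown silt loam at roughly 0.0313 to 0.500 kg/ha.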"}, "[6]": {"system": "SAGPY (Arrowhead (Pygmaea))", "test": "Preemergence weed control under flooded paddy conditions", "assay_type": "in vivo, Sagittaria pygmaea", "conditions": "rated 3-4 weeks after treatment", "outline": "as §3"}, "CYPSE (Flatsedge)": {"system": "CYPSE (Flatsedge)", "test": "Postemergence weed control under flooded paddy conditions", "assay_type": "in vivo, Cyperus serotinus", "conditions": "postemergence weeds, rated 3 to 4 weeks after treatment", "outline": "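Weeds 3 to 5 cm tall and rice seedlings at the 1.5 to 2.5 leaf stage were flooded, with water held 1.5 to 3 cm above the soil. Compounds in 50/50 v/v aqueous/acetone went into the flood water at about 0.0313 to 0.500 kg/ha. Visual 0-9 ratings versus control were made 3 to 4 weeks later.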"}}}
{"compound": "C=CCN1C(=O)C(CC(=O)O)SC1=Nc1cc(-n2c(=O)cc(C(F)(F)F)n(C)c2=O)c(F)cc1Cl", "note": "(stereo not drawn) [Compound 62, 3-Allyl-2-{{2-chloro-5-[3,6-dihydro-3-methyl-2,6-dioxo-4-(trifluoromethyl)-1(2H)-pyrimidinyl]-4-fluorophenyl}imino}-4-oxo-5-thiazolidineacetic acid]", "values": [{"measurement": "Postemergence herbicidal rating CASOB", "setting": "CASOB (Sicklepod); Rate 0.0158 kg/ha", "value": 1.0}, {"measurement": "Postemergence herbicidal rating CASOB", "setting": "CASOB (Sicklepod); Rate 0.0315 kg/ha", "value": 2.0}, {"measurement": "Postemergence herbicidal rating CASOB", "setting": "CASOB (Sicklepod); Rate 0.0630 kg/ha", "value": 6.0}, {"measurement": "Postemergence herbicidal rating CHEAL", "setting": "[1]; Rate 0.0158 kg/ha", "value": 9.0}, {"measurement": "Postemergence herbicidal rating CHEAL", "setting": "[1]; Rate 0.0315 kg/ha", "value": 9.0}, {"measurement": "Postemergence herbicidal rating CHEAL", "setting": "[1]; Rate 0.0630 kg/ha", "value": 9.0}, {"measurement": "Postemergence herbicidal rating ECHCG", "setting": "ECHCG (Barnyardgrass); Rate 0.0158 kg/ha", "value": 4.0}, {"measurement": "Postemergence herbicidal rating ECHCG", "setting": "ECHCG (Barnyardgrass); Rate 0.0315 kg/ha", "value": 6.0}, {"measurement": "Postemergence herbicidal rating ECHCG", "setting": "ECHCG (Barnyardgrass); Rate 0.0630 kg/ha", "value": 7.0}, {"measurement": "Postemergence herbicidal rating ORYSAT", "setting": "ORYSAT (Rice, Tebonnet) [2]; Rate 0.0158 kg/ha", "value": 4.5}, {"measurement": "Postemergence herbicidal rating ORYSAT", "setting": "ORYSAT (Rice, Tebonnet) [2]; Rate 0.0315 kg/ha", "value": 5.0}, {"measurement": "Postemergence herbicidal rating ORYSAT", "setting": "ORYSAT (Rice, Tebonnet) [2]; Rate 0.0630 kg/ha", "value": 7.0}, {"measurement": "Preemergence herbicidal rating GALAP", "setting": "GALAP (Galium); rate 0.0156 kg/ha", "value": 0.0}, {"measurement": "Preemergence herbicidal rating GALAP", "setting": "GALAP (Galium); rate 0.0313 kg/ha", "value": 0.0}, {"measurement": "Preemergence herbicidal rating GALAP", "setting": "GALAP (Galium); rate 0.0625 kg/ha", "value": 0.0}, {"measurement": "Preemergence herbicidal rating GALAP", "setting": "GALAP (Galium); rate 0.1250 kg/ha", "value": 6.0}, {"measurement": "Preemergence herbicidal rating GALAP", "setting": "GALAP (Galium); rate 0.2500 kg/ha", "value": 9.0}, {"measurement": "Preemergence herbicidal rating SETVI", "setting": "SETVI (Foxtail, Green); rate 0.0156 kg/ha", "value": 0.0}, {"measurement": "Preemergence herbicidal rating SETVI", "setting": "SETVI (Foxtail, Green); rate 0.0313 kg/ha", "value": 0.0}, {"measurement": "Preemergence herbicidal rating SETVI", "setting": "SETVI (Foxtail, Green); rate 0.0625 kg/ha", "value": 6.0}, {"measurement": "Preemergence herbicidal rating SETVI", "setting": "SETVI (Foxtail, Green); rate 0.1250 kg/ha", "value": 9.0}, {"measurement": "Preemergence herbicidal rating SETVI", "setting": "SETVI (Foxtail, Green); rate 0.2500 kg/ha", "value": 9.0}, {"measurement": "Preemergence herbicidal rating GLXMAW", "setting": "[3]; rate 0.0156 kg/ha", "value": 0.0}, {"measurement": "Preemergence herbicidal rating GLXMAW", "setting": "[3]; rate 0.0313 kg/ha", "value": 0.0}, {"measurement": "Preemergence herbicidal rating GLXMAW", "setting": "[3]; rate 0.0625 kg/ha", "value": 1.0}, {"measurement": "Preemergence herbicidal rating GLXMAW", "setting": "[3]; rate 0.1250 kg/ha", "value": 2.0}, {"measurement": "Preemergence herbicidal rating GLXMAW", "setting": "[3]; rate 0.2500 kg/ha", "value": 7.0}, {"measurement": "Preemergence herbicidal rating ORYSAT", "setting": "ORYSAT (Rice, Tebonnet) [4]; rate 0.0156 kg/ha", "value": 0.0}, {"measurement": "Preemergence herbicidal rating ORYSAT", "setting": "ORYSAT (Rice, Tebonnet) [4]; rate 0.0313 kg/ha", "value": 0.0}, {"measurement": "Preemergence herbicidal rating ORYSAT", "setting": "ORYSAT (Rice, Tebonnet) [4]; rate 0.0625 kg/ha", "value": 1.0}, {"measurement": "Preemergence herbicidal rating ORYSAT", "setting": "ORYSAT (Rice, Tebonnet) [4]; rate 0.1250 kg/ha", "value": 4.0}, {"measurement": "Preemergence herbicidal rating ORYSAT", "setting": "ORYSAT (Rice, Tebonnet) [4]; rate 0.2500 kg/ha", "value": 6.0}, {"measurement": "Preemergence herbicidal rating TRZAWR", "setting": "[5]; rate 0.0156 kg/ha", "value": 0.0}, {"measurement": "Preemergence herbicidal rating TRZAWR", "setting": "[5]; rate 0.0625 kg/ha", "value": 1.0}, {"measurement": "Preemergence herbicidal rating TRZAWR", "setting": "[5]; rate 0.1250 kg/ha", "value": 1.0}, {"measurement": "Preemergence herbicidal rating TRZAWR", "setting": "[5]; rate 0.2500 kg/ha", "value": 2.0}, {"measurement": "Preemergence herbicidal rating ZEAMX", "setting": "ZEAMX (Corn, Field); rate 0.0156 kg/ha", "value": 0.0}, {"measurement": "Preemergence herbicidal rating ZEAMX", "setting": "ZEAMX (Corn, Field); rate 0.0313 kg/ha", "value": 1.0}, {"measurement": "Preemergence herbicidal rating ZEAMX", "setting": "ZEAMX (Corn, Field); rate 0.0625 kg/ha", "value": 1.0}, {"measurement": "Preemergence herbicidal rating ZEAMX", "setting": "ZEAMX (Corn, Field); rate 0.1250 kg/ha", "value": 3.0}, {"measurement": "Preemergence herbicidal rating ZEAMX", "setting": "ZEAMX (Corn, Field); rate 0.2500 kg/ha", "value": 7.0}, {"measurement": "CYPIR herbicidal effect rating", "setting": "CYPIR (Rice Flatsedge); 0.0313 kg/ha", "value": 0.0}, {"measurement": "CYPIR herbicidal effect rating", "setting": "CYPIR (Rice Flatsedge); 0.0625 kg/ha", "value": 2.0}, {"measurement": "CYPIR herbicidal effect rating", "setting": "CYPIR (Rice Flatsedge); 0.1250 kg/ha", "value": 9.0}, {"measurement": "CYPIR herbicidal effect rating", "setting": "CYPIR (Rice Flatsedge); 0.2500 kg/ha", "value": 9.0}, {"measurement": "MOOVA herbicidal effect rating", "setting": "MOOVA (Monochoria); 0.0313 kg/ha", "value": 4.0}, {"measurement": "MOOVA herbicidal effect rating", "setting": "MOOVA (Monochoria); 0.0625 kg/ha", "value": 9.0}, {"measurement": "MOOVA herbicidal effect rating", "setting": "MOOVA (Monochoria); 0.1250 kg/ha", "value": 9.0}, {"measurement": "MOOVA herbicidal effect rating", "setting": "MOOVA (Monochoria); 0.2500 kg/ha", "value": 9.0}, {"measurement": "SAGPY herbicidal effect rating", "setting": "[6]; 0.0313 kg/ha", "value": 0.0}, {"measurement": "SAGPY herbicidal effect rating", "setting": "[6]; 0.0625 kg/ha", "value": 0.0}, {"measurement": "SAGPY herbicidal effect rating", "setting": "[6]; 0.1250 kg/ha", "value": 3.0}, {"measurement": "SAGPY herbicidal effect rating", "setting": "[6]; 0.2500 kg/ha", "value": 6.0}, {"measurement": "Herbicidal rating CYPSE", "setting": "CYPSE (Flatsedge); Rate 0.0313 kg/ha", "value": 0.0}, {"measurement": "Herbicidal rating CYPSE", "setting": "CYPSE (Flatsedge); Rate 0.0625 kg/ha", "value": 0.0}, {"measurement": "Herbicidal rating CYPSE", "setting": "CYPSE (Flatsedge); Rate 0.1250 kg/ha", "value": 0.0}, {"measurement": "Herbicidal rating CYPSE", "setting": "CYPSE (Flatsedge); Rate 0.2500 kg/ha", "value": 0.0}]}
